Assay results: patent publication US20100255020A1, “METHOD FOR INDUCING CYTOTOXIC T-CELLS, CYTOTOXIC T-CELL INDUCERS, AND PHARMACEUTICAL COMPOSITIONS AND VACCINES EMPLOYING THEM” (NEC CORPORATION, priority 2007, published 2010)
Where no end group is shown, it is not given here.

Key:
HLA-A*0206 molecule = molecular target: T1, HLA-A*0206 molecule (Homo sapiens, UniProt P04439, D140Y/D185E/D98H/E176V/E277Q/F33Y/G131W/G231S/I119V/I121R/I166T/I218V/L300P/L318F/N151K/N90K/P208A/P217A/Q86G/Q94H/R138H/R169H/T345S); test: Peptide binding to HLA-A*0206 molecule on RA2.6 cells (flow cytometry, Kd); conditions: HLA-A*0206, RA2.6 cells; read-out: Binding assay data (−log Kd) (converted)
T1 construct: expressed in transfected cells; host or cells: RA2.6 (mouse TAP-deficient RMAS cells transfected with pMKITneo bearing HLA-A*0206 cDNA)
Procedure: The ability of a peptide to bind to an HLA-A*0206 molecule, which is a product of the HLA-A*0206 gene, was measured using RA2.6 cells (cell line newly generated in Kochi University), wherein cDNA of the HLA-A*0206 gene is introduced into RMAS, which is a mouse TAP (transporter associated with antigen processing)-deficient cell line.
RA2.6 cells were first cultured overnight at 26° C., during this incubation HLA-A*0206 molecules devoid of bound peptide accumulated. Serial dilutions of peptide were added to these cells and peptide binding was carried out at room temperature for 30 minutes.
Subsequently, culture was carried out at 37° C. for 3.5 hours, during this incubation empty HLA-A*0206 molecules to which no peptide was bound were denatured, and the tertiary structure was lost.
The cells were stained by adding thereto fluorescently-labeled monoclonal antibody BB7.2, which specifically recognizes the peptide-bound HLA-A*0206 molecule, and incubating on ice for 20 minutes.
Subsequently, the amount of fluorescence per cell was measured using a flow cytometer, and a dissociation constant Kd value was calculated by a method published in the literature (Udaka et al., Immunogenetics, 51, 816-828, 2000).

[1] = system: HLA-A*2402 positive cell lines that express WT1 naturally (KAZZ, KCL22, KH88, MEG01); test: Reactivity of WT1 peptide-specific cell lines toward tumor cells (IFN-γ ELISPOT); assay type: cell-based, human; conditions: cell lines established from HLA-A*2402 positive patients, FIG. 5
Text: Reactions of cell lines established from different patients are arranged in a bar graph.

HLA-A*0201 molecule = HLA-A*0201 molecule (Homo sapiens, UniProt P04439, D140Y/D185E/D98H/E176V/E277Q/G131W/G231S/I119V/I121R/I166T/I218V/L300P/L318F/N151K/N90K/P208A/P217A/Q86G/Q94H/R138H/R169H/T345S); test: Peptide binding to HLA-A*0201 molecule on JY cells (flow cytometry, Kd); conditions: HLA-A*0201, JY cells; read-out: Binding assay data (−log Kd) (converted)
Procedure: The ability of a peptide to bind to an HLA-A*0201 molecule, which is a product of the HLA-A*0201 gene, was measured using strain JY cells expressing the HLA-A*0201 molecule.
JY cells were first exposed to acidic conditions at a pH of 3.8 for 30 seconds, thus dissociating and removing a β2m light chain and an endogenous peptide, which were noncovalently associated with the HLA-A* 0201 molecule. After neutralization, a reconstitution experiment was carried out.
The above-mentioned JY cells and the purified […] were added to serial dilutions of peptide for which the binding ability needs to be measured, and incubation was carried out on ice for 4 hours. HLA-A*0201 molecules that had reassociated up to this time point were stained using the fluorescently-labeled monoclonal antibody BB7.2, a conformation dependent monoclonal Ab specific for an assembled form of HLA-A*0201 molecule.
Subsequently, the amount of fluorescence per cell was measured using a flow cytometer and a dissociation constant Kd value was calculated by a method published in the literature (Udaka et al., Immunogenetics, 51, 816-828, 2000).

HLA-A*2402 molecule = HLA-A*2402 molecule (Homo sapiens, UniProt P04439, D101N/D140Y/D185E/E176V/E190D/F33S/G103R/G107R/I119L/I121M/I306V/K335N/L105A/L180Q/L300P/N151K/N90K/Q86E/Q94H/R106L/R138H/R89G/T104I/T345S/V100E/W191G/Y123F); test: Peptide binding to HLA-A*2402 molecule on C1R-A24 cells (flow cytometry, Kd); conditions: HLA-A*2402, C1R-A24 cells; read-out: Binding assay data (−log Kd) (converted)
Procedure: The ability of a peptide to bind to an HLA-A*2402 molecule, which is a product of the HLA-A*2402 gene, was measured using C1R-A24 cells expressing the HLA-A*2402 molecule (cells generated by Professor Masafumi Takiguchi, Kumamoto University being supplied with permission by Associate Professor Masaki Yasukawa, Ehime University).
C1R-A24 cells were first exposed to acidic conditions at a pH of 3.3 for 30 seconds, thus dissociating and removing a β2m light chain, which is associated with HLA class I molecules in common, and an endogenous peptide originally bound to the HLA-A*2402 molecule. After neutralization, purified β2m was added to C1R-A24 cells, the obtained product was added to serial dilutions of a peptide, and incubated on ice for 4 hours. […]
Subsequently, the number of MHC-pep complexes per C1R-A24 cell (proportional to the intensity of fluorescence of the above-mentioned fluorescent antibody) was quantitatively measured using a FACScan fluorescence-activated flow cytometer (Becton Dickinson Biosciences). A dissociation constant Kd value between the HLA-A*2402 molecule and the peptide was calculated from the average intensity of fluorescence per cell by a method published in the literature (Udaka et al., Immunogenetics, 51, 816-828, 2000).

[2] = system: peptide-loaded target cells (C1R-A24, RA24, T2); test: 51Cr release assay of PBMC killing activity against peptide-loaded target cells; assay type: cell-based, human
Procedure: Target cells were labeled with ^51Cr and loaded with HLA-binding peptide of interest. 5,000 or 10,000 cells/well of target cells were placed in 96-well U-bottom plate, and then, PBMCs having been stimulated twice in vitro were added thereto as a responder. Cells were incubated at 37° C. for 5 hours and ^51Cr released from the damaged cells during the incubation was measured, and % specific lysis was calculated. As target cells C1R-A24 or RA24 cells were used as a target when reactivity to HLA-A*2402 binding peptides were examined, and T2 cells were used as a target and incubation was carried out for 2 hours after addition of responder cells. Percent specific lysis was calculated as follows. % specific lysis=(test release-spontaneous release)/(total release-spontaneous release)×100.

malignant tumors = test: Peptide immunotherapy of patients, tumor response by RECIST criteria (CT/MRI); assay type: in vivo, human; parameters: key to RECIST, single lung metastasis / RECIST, total sum of longest diameters of 10 metastatic target lesions / RECIST, pubic bone metastatic tumor / RECIST determination 3 months after starting W10 peptide therapy: CR: all target lesions have disappeared; PR: the sum of the longest diameters of the target lesions decreases by at least 30%; PD: the sum of the longest diameters of the target lesions increases by at least 20%; SD: the change of tumr size is between PR or PD
Procedure: Among 18 patients, 3 people are illustrated in the style of case reports. […] The mixture was prepared immediately prior to administration. When W10 peptide was administered without petussis vaccine in the safety test, W10 peptide solution was divided into 4 equal portions and injected intradermally at 4 locations in the same manner. A method to measure the diameter of a tumor and a method to analyze peptide-specific T-cells using an HLA-A24 tetramer by flow cytometry are described below.
The international RECIST criteria referred to here is an evaluation standard described in Theresse, P. et al., J Natl Cancer Inst. 2000, 92, 205-216. When there is confirmation by helical CT or MRI that all target lesions have disappeared this is defined as CR (complete response), when the sum of the longest diameters of the target lesions decreases by at least 30% this is defined as PR (partial response), when the sum of the longest diameters of the target lesions increases by at least 20% this is defined as PD (progressive disease), and when the change of tumr size is between PR or PD this is defined as SD (stable disease). However, regardless of the presence or absence of a change in the target lesions, when even one new lesion appears this is defined as PD.
Based on the above-mentioned international RECIST criteria, which is used for evaluation of anticancer drugs, all measurable tumors were selected as target tumors, and change in the SLD of the tumors over the course of the therapy was monitored. In addition, number of all the tumors was counted, regardless of the size of a tumor, every time diagnostic imaging was carried out in order to lookout for new lesions. Diagnostic imaging was carried out in principle once a month by helical CT or MRI. If even one new metastasis appeared, regardless of the change in the primary lesion, it was judged as PD.
Clinical responses were evaluated according to the aforementioned international RECIST criteria for 18 patients who had been treated by immunotherapy using W10+Wc for at least 3 months and one week. Eight cased out of 18 patients were judged as SD, 10 cased were PD. […] In reports on peptide immunotherapy so far, the tumor control rate was limited to a few % up to ten or so % worldwide (Reference Documents 1 to 4). Compared with these already reported cases, this is a good reaction.

[3] = HLA-A*2402 binding peptides, FIG. 9a and b

Row | Kd (HLA-A*0206 molecule) | Kd (HLA-A*0201 molecule) | Kd (HLA-A*2402 molecule) | Sequence | Reactivity of peptide-dependent cell line toward WT1-expressing cell lines compared with C1R-A24 [1] | Peptide-reactive cytolytic cells in PBMCs of patients ([2]; HLA-A*0201 binding peptides, T2 targets) | Peptide-reactive cytolytic cells in PBMCs of patients [2, 3] | Effect of immunotherapy on tumor (malignant tumors; patient KB07-005, prostate cancer, 235Y from December 2006) | Primary tumor by MRI (malignant tumors; patient KB07-006, 3 mg 235Y emulsified with Montanide, weekly intradermal, 4th week) | RECIST, single lung metastasis (malignant tumors; patient KB07-006, 235Y immunization for 10 months) | Primary tumor on continued immunization (malignant tumors; patient KB07-006, 235Y weekly, no recurrence at three and a half years)
1 | 331 nM | – | – | GVFRGIQDV [W292] | – | – | – | – | – | – | –
2 | 245 nM | 389 nM | 21.4 nM | RVPGVAPTL [W302] | tends to be higher although differences are small | contain cytolytic cells that recognize | cytolytic cells include those reactive | – | – | – | –
3 | – | – | – | CYTWNQMNL (listed as Homo sapiens) [235Y, reference compound] | tends to be higher although differences are small | – | cytolytic cells include those reactive | no effect | apparent reduction of the primary tumor | SD | disappeared
